# From ChEMBL document CHEMBL6074620, “Discovery of a triphenylamine-based ligand that targets mitochondrial DNA G-quadruplexes and activates the cGAS-STING immunomodulatory pathway” (Eur J Med Chem, 2024)
# Calls of active or inactive are those of the source. The calls are words filed in the database; no cut-off is given here.
# Tests used:
# Mus musculus [1] = assay: Immunostimulatory activity in female BALB/c mouse implanted with mouse 4T1 cells assessed as tumor infiltrating lymphocytes by measuring increase in CD4+ and CD8+T cells at 2.5 mg/kg, sc by immunohistochemistry analysis; type: functional, organism-based
# 4T1 [2] = assay: Induction of mitochondrial damage in mouse 4T1 cells assessed as dispersion of fluorescence Mitotracker red incubated for 1 hrs and measured after 24 hrs by immunofluorescence analysis; type: functional, cell-based; conditions: time 25.0 hrs
# 4T1 [3] = assay: Antitumor activity against mouse 4T1 cells implanted with female BALB/c mouse assessed as decrease tumor weight at 2.5 mg/kg, sc administered for every 3 days for 2 weeks and measured on day 21; type: functional, organism-based; conditions: time 21.0 day
# 4T1 [4] = assay: Activation of cGAS-STING signaling pathway in mouse 4T1 cells assessed as increase in IL-6 level at 5 uM by qPCR analysis; type: cell-based; conditions: filed as activator
# [5] = Drug localization in mitochondria of mouse 4T1 cells assessed as signal colocalization incubated for 30 mins by MitoTracker Green staining based analysis; type: ADME; conditions: 4t1, 0.5 h
# 4T1 [6] = assay: Induction of mitochondrial damage in mouse 4T1 cells assessed as disappearance of picogreen incubated for 1 hrs and measured after 24 hrs by immunofluorescence analysis; type: functional, cell-based; conditions: time 25.0 hrs
# 4T1 [7] = assay: Induction of ROS generation in mouse 4T1 cells assessed as decrease ROS level at 5 uM in presence of NAC by […] analysis; type: functional, cell-based
# Mus musculus [8] = assay: Immunostimulatory activity in female BALB/c mouse implanted with mouse 4T1 cells assessed as increase in CD8+ T cells in spleen 2.5 mg/kg, iv by flow cytometry; type: functional, organism-based
# Mus musculus [9] = assay: In-vivo activation of cGAS-STING signaling pathway in female BALB/c mouse assessed as increase in IL-6 level at 2.5 mg/kg, sc by ELISA analysis; type: functional, organism-based
# Mus musculus [10] = assay: Immunostimulatory activity in female BALB/c mouse implanted with mouse 4T1 cells assessed as change in CD8+ T cells in spleen at 2.5 mg/kg, sc by flow cytometry; type: functional, organism-based
# Mus musculus [11] = assay: In-vivo activation of cGAS-STING signaling pathway in female BALB/c mouse assessed as IRF3 level in tumor at 2.5 mg/kg, sc by Western blot analysis; type: functional, organism-based
# 4T1 [12] = assay: Activation of cGAS-STING signaling pathway in mouse 4T1 cells assessed as increase in TNF-alpha level at 5 uM by qPCR analysis; type: cell-based; conditions: filed as activator
# 4T1 [13] = assay: Antitumor activity against mouse 4T1 cells implanted with female BALB/c mouse assessed as effect on caspase-3 level in tumor at 2.5 mg/kg, sc measured for 21 days; type: functional, organism-based; conditions: time 21.0 day
# Mus musculus [14] = assay: Immunostimulatory activity in female BALB/c mouse implanted with mouse 4T1 cells assessed as upregulation of M1 macrophages level 2.5 mg/kg, sc by flow cytometry analysis; type: functional, organism-based
# Quadruplex DNA [15] = assay: Binding affinity to 3-terminal mt6363 DNA (unknown origin) assessed as dissociation constant by TAMRA-labeled G4 quenching assay; type: nucleic-acid assay
# 4T1 [16] = assay: Induction of ROS generation in mouse 4T1 cells assessed as increase 8-OG level in presence of 8-oxoguanine by DAPI staining based immunofluorescence based analysis; type: functional, cell-based
# 4T1 [17] = assay: Induction of mitochondrial damage in mouse 4T1 cells assessed as decrease in CytB level at 5 uM in presence of DDC by qPCR analysis; type: functional, cell-based
# 4T1 [18] = assay: Induction of mitochondrial damage in mouse 4T1 cells assessed as increase in Dloop2 level by qPCR analysis; type: functional, cell-based
# Mus musculus [19] = assay: In-vivo activation of cGAS-STING signaling pathway in female BALB/c mouse assessed as TBK1 level in tumor at 2.5 mg/kg, sc by Western blot analysis; type: functional, organism-based
# 4T1 [20] = assay: Induction of mouse 4T1 cell maturation assessed as increase in CD80 positive cells by flow cytometric analysis; type: functional, cell-based; conditions: dose <= 5.0 µM
# 4T1 [21] = assay: Cytotoxicity against mouse 4T1 cells assessed as reduction in cell viability incubated for 24 hrs by CCK-8 assay; type: functional, cell-based; conditions: 4T1, 24 h
# Mus musculus [22] = assay: In-vivo activation of cGAS-STING signaling pathway in female BALB/c mouse assessed as STING level in tumor at 2.5 mg/kg, sc by Western blot analysis; type: functional, organism-based
# 4T1 [23] = assay: Induction of mitochondrial damage in mouse 4T1 cells assessed as decrease in CytB level at 5 uM in presence of NAC by qPCR analysis; type: functional, cell-based
# 4T1 [24] = assay: Activation of cGAS-STING pathway in mouse 4T1 cells assessed as […] in STING phosphorylation up to 5 uM by Western blot analysis; type: cell-based; conditions: filed as activator
# [25] = Toxicity in female BALB/c mouse implanted with mouse 4T1 cells assessed as change in body weight at 2.5 mg/kg, iv administered every 3 days for 2 weeks from day 7; type: organism-based; conditions: in vivo, 336 h
# 4T1 [26] = assay: Induction of mitochondrial damage in mouse 4T1 cells assessed as decrease in Dloop2 level at 5 uM in presence of NAC by qPCR analysis; type: functional, cell-based
# Quadruplex DNA [27] = assay: Binding affinity to G4-quadruplex mt6363 DNA (unknown origin) assessed as melting temperature at 10 uM incubated for 2 hrs by fluorescence based analysis; type: nucleic-acid assay
# 4T1 [28] = assay: Activation of cGAS-STING signaling pathway in mouse 4T1 cells assessed as increase in IFN-beta level up to 5 uM by ELISA analysis; type: cell-based; conditions: filed as activator
# 4T1 [29] = assay: Induction of apoptosis in mouse 4T1 cells at 5 uM by Annexin V/PI staining based flow cytometry analysis; type: functional, cell-based
# 4T1 [30] = assay: Inhibition of colony formation in mouse 4T1 cells assessed as decrease in number of colonies measured after 10 days of treatment by […]; type: functional, cell-based; conditions: dose <= 2.0 µM, time 10.0 day
# 4T1 [31] = assay: Induction of mitochondrial damage in mouse 4T1 cells assessed as decrease in ND4 level at 5 uM in presence of NAC by qPCR analysis; type: functional, cell-based
compound,measurement,setting,value
COc1ccc(N(c2ccc(/C=C/C3=[N+](C)c4ccc5ccccc5c4C3(C)C)cc2)c2ccc(OC)cc2)cc1.[I-],Activity,Mus musculus [1],Active
same,Activity,4T1 [2],Active
same,Activity,4T1 [3],Active
same,Activity,4T1 [4],Active
same,Drug uptake,[5],Active
same,Activity,4T1 [6],Active
same,Activity,4T1 [7],Active
same,Activity,Mus musculus [8],Active
same,Activity,Mus musculus [9],Active
same,Activity,Mus musculus [10],Active
same,Activity,Mus musculus [11],Active
same,Activity,4T1 [12],Active
same,Activity,4T1 [13],Active
same,Activity,Mus musculus [14],Active
same,Kd,Quadruplex DNA [15],1900 nM
same,Activity,4T1 [16],Active
same,Activity,4T1 [17],Active
same,Activity,4T1 [18],Active
same,Activity,Mus musculus [19],Active
same,Activity,4T1 [20],Dose-dependent-effect
same,IC50,4T1 [21],1900 nM
same,Activity,Mus musculus [22],Active
same,Activity,4T1 [23],Active
same,Activity,4T1 [24],Active
same,Activity,[25],Non-toxic
same,Activity,4T1 [26],Active
same,Tm,Quadruplex DNA [27],46.2 °C
same,Activity,4T1 [28],Active
same,Activity,4T1 [29],Active
same,Activity,4T1 [30],Dose-dependent-effect
same,Activity,4T1 [31],Active
